Source: ChEMBL document CHEMBL1144796, “Carbonic anhydrase inhibitors. Interaction of indapamide and related diuretics with 12 mammalian isozymes and X-ray crystallographic studies for the indapamide-isozyme II adduct” (Bioorg Med Chem Lett, 2008)

Experiments:
[1] = target: Carbonic anhydrase 13 (Mus musculus) (UniProt Q9D6N1); experiment: Inhibition of mouse full length carbonic anhydrase 13
[2] = target: Carbonic anhydrase 5B, mitochondrial (Homo sapiens) (UniProt Q9Y2D0)
[3] = target: Carbonic anhydrase 6 (Homo sapiens) (UniProt P23280)
Chain of Carbonic anhydrase 6 (Homo sapiens) (P23280 whole entry): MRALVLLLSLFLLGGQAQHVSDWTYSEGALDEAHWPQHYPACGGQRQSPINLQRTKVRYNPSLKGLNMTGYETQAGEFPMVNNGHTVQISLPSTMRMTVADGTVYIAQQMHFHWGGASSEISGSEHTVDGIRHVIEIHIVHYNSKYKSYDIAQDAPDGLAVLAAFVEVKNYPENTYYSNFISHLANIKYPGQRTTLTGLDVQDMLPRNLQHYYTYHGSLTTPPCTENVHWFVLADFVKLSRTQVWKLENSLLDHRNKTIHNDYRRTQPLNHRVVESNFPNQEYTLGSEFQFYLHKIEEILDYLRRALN

[4] = target: Carbonic anhydrase 7 (Homo sapiens) (UniProt P43166)
Chain of Carbonic anhydrase 7 (Homo sapiens) (P43166 whole entry): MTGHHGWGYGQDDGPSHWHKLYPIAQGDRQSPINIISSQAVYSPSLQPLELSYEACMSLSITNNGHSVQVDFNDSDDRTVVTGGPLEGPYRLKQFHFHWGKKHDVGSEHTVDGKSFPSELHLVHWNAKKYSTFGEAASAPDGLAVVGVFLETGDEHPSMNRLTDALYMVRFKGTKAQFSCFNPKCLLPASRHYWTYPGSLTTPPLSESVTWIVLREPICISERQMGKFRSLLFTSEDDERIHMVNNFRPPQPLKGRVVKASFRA

[5] = target: Carbonic anhydrase 9 (Homo sapiens) (UniProt Q16790)
[6] = target: Carbonic anhydrase 14 (Homo sapiens) (UniProt Q9ULX7)
Chain of Carbonic anhydrase 14 (Homo sapiens) (Q9ULX7 whole entry): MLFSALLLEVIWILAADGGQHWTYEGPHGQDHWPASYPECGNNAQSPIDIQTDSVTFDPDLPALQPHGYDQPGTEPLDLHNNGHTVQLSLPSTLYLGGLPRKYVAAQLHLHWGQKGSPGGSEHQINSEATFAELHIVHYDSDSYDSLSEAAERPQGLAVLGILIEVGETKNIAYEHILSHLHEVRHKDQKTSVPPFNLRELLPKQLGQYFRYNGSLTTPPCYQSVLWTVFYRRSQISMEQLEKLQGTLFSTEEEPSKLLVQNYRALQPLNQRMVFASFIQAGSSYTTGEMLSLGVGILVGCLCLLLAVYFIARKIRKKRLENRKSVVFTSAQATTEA

[7] = target: Carbonic anhydrase 2 (Homo sapiens) (UniProt P00918)
[8] = target: Carbonic anhydrase 4 (Homo sapiens) (UniProt P22748)
Chain of Carbonic anhydrase 4 (Homo sapiens) (P22748 whole entry): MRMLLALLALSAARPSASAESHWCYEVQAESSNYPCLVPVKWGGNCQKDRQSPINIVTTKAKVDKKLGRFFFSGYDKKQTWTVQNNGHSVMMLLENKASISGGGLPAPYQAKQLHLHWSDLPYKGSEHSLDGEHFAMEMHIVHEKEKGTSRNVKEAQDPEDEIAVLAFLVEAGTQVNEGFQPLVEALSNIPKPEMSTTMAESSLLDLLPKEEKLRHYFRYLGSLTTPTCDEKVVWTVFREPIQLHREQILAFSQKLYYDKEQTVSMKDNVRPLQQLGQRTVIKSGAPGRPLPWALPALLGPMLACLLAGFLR

[9] = target: Carbonic anhydrase 5A, mitochondrial (Homo sapiens) (UniProt P35218)
Chain of Carbonic anhydrase 5A, mitochondrial (Homo sapiens) (P35218 whole entry): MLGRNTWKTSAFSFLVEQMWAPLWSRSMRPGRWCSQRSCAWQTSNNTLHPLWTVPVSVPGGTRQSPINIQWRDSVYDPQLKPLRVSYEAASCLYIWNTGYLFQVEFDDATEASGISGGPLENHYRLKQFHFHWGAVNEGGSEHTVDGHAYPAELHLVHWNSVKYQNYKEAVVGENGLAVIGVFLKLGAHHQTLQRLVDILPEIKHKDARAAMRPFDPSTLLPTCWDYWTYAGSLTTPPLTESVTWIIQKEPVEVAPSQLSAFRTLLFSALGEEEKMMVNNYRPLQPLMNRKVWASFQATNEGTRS

[10] = target: Carbonic anhydrase 3 (Homo sapiens) (UniProt P07451)
Chain of Carbonic anhydrase 3 (Homo sapiens) (P07451 whole entry): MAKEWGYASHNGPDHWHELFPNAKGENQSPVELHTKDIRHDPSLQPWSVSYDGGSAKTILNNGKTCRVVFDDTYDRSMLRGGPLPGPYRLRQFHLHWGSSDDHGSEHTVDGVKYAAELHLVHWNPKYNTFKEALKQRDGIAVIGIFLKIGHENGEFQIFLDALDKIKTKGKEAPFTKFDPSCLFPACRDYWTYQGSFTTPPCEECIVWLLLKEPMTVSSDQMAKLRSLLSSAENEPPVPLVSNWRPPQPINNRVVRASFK

[11] = target: Carbonic anhydrase 12 (Homo sapiens) (UniProt O43570)
Chain of Carbonic anhydrase 12 (Homo sapiens) (O43570 whole entry): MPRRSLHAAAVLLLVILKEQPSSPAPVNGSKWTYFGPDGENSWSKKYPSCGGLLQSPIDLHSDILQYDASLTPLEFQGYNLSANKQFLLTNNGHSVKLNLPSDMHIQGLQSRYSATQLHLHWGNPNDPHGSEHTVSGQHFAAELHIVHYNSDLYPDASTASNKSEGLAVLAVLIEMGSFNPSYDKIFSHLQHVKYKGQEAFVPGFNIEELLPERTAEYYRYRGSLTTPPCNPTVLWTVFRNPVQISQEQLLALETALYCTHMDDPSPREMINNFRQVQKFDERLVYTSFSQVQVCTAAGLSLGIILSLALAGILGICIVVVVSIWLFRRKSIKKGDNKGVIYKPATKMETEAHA

Chain of Carbonic anhydrase 5B, mitochondrial (Homo sapiens) (Q9Y2D0 whole entry): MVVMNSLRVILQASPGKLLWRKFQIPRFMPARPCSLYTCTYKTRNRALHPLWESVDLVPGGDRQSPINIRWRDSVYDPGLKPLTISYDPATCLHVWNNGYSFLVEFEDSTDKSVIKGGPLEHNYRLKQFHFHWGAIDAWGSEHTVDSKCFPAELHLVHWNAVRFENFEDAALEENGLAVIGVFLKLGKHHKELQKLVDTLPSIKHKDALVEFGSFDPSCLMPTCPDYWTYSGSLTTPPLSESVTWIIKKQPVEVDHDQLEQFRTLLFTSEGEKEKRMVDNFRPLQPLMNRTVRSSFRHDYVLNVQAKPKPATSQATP
Chain of Carbonic anhydrase 13 (Mus musculus) (Q9D6N1 whole entry, looked up): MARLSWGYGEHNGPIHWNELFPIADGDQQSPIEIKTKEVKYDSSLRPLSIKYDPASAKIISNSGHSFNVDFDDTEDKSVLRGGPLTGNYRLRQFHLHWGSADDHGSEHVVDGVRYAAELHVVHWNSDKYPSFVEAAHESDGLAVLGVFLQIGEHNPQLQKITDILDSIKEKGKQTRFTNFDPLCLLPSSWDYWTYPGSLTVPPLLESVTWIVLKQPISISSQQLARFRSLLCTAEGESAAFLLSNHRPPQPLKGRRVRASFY

Row | SMILES | Ki [1] [µM] | Ki [2] [µM] | Ki [3] [µM] | Ki [4] [µM] | Ki [5] [µM] | Ki [6] [µM] | Ki [7] [µM] | Ki [8] [µM] | Ki [9] [µM] | Ki [10] | Ki [11] [µM]
1 | NS(=O)(=O)c1cc(C2(O)NC(=O)c3ccccc32)ccc1Cl (stereo not drawn) | 0.015 | 0.009 | 1.35 | 0.0028 | 0.023 | 4.13 | 0.138 | 0.196 | 0.917 |  | 
2 | NS(=O)(=O)c1cc(C(=O)O)c(NCc2ccco2)cc1Cl |  |  |  |  |  |  |  |  |  | > 2 10^5nM | 
3 | CC(=O)/N=c1/sc(S(N)(=O)=O)nn1C |  |  |  |  |  |  |  |  |  | > 2 10^5nM | 
4 | CC1Nc2cc(C(F)(F)F)c(S(N)(=O)=O)cc2S(=O)(=O)N1C (stereo not drawn) | 15.4 | 0.429 | 8.25 | 0.433 | 0.412 | 0.36 | 0.435 | 4.78 | 10.2 | > 2 10^5nM | 0.305
5 | CCCCNc1cc(C(=O)O)cc(S(N)(=O)=O)c1Oc1ccccc1 | 2.57 | 0.159 | 3.89 | 0.062 | 0.0258 | 0.25 | 6.98 | 0.303 | 0.7 | > 2 10^5nM | 0.0211

More lines, now with the values ahead:

Row | Ki [1] [µM] | Ki [2] [µM] | Ki [3] [µM] | Ki [4] [µM] | Ki [5] [µM] | Ki [6] [µM] | Ki [7] [µM] | Ki [8] [µM] | Ki [9] [µM] | Ki [10] | Ki [11] [µM] | SMILES
6 | 3.89 | 0.603 | 3.66 |  | 0.367 | 4.11 |  | 0.427 | 4.22 | > 2 10^5nM | 0.355 | CC1Nc2cc(Cl)c(S(N)(=O)=O)cc2S(=O)(=O)N1C (stereo not drawn)
7 |  |  |  |  |  |  | 1.26 |  |  |  |  | CCC1NC(=O)c2cc(S(N)(=O)=O)c(Cl)cc2N1 (stereo not drawn)
8 | 0.015 | 0.312 | 1.71 |  | 0.32 | 5.43 | 2 | 0.216 | 0.75 | > 2 10^5nM | 0.0054 | Cc1ccccc1N1C(=O)c2cc(S(N)(=O)=O)c(Cl)cc2NC1C (stereo not drawn)
